Measurements published in patent publication US20210092956A1, “Safening Rice Against Group 15 Herbicides” (THE BOARD OF TRUSTEES OF THE UNIVERSITY OF ARKANSAS, priority 2019, published 2021).

How the values were obtained:
Diamond rice = tested on: Diamond rice; parameters: species or system Oryza sativa L.; settings: in vivo
Protocol: The experiment was conducted within a growth chamber at 13.8° C. (night) and 23.8° C. (day) using a 10-hour night and 14-hour day photoperiod. Diamond rice was planted in pots filled to the same weight of soil to maintain 80% soil moisture throughout the experiment. […] Data were analyzed using R and subjected to ANOVA. Means were separated using Fisher's LSD (α=0.05).

barnyardgrass = assay: Field weed control with ME acetochlor, barnyardgrass; type: in vivo, Echinochloa crus-galli; settings: fenclorim seed treatment with ME acetochlor
Protocol: (§1) The experiment was conducted under standard small-plot research practices. Diamond rice was planted at 72 seeds m^−1 row. […] Data were analyzed using R and subjected ANOVA. Means were separated using Fisher's LSD (α=0.05).

weedy rice or red rice = assay: Field weed control with ME acetochlor, weedy rice; type: in vivo, Oryza sativa L. var. sylvatica; settings: fenclorim seed treatment with ME acetochlor
Protocol: as §1

For `Clc1cc(Cl)nc(-c2ccccc2)n1` [fenclorim, 4,6-dichloro-2-phenyl-pyrimidine], the Biomass (Diamond rice) was 99%, the Height (Diamond rice) was 13.7 cm and the Injury (Diamond rice) was 0%. For the same compound, the Stand reduction (Diamond rice) was 3%, the “effect of the seed treatment on weed control” value (barnyardgrass) was “did not negatively affect weed control” and the “effect of the seed treatment on weed control” value (weedy rice or red rice) was “did not negatively affect weed control”.
